Source: US20260132165A1, “MODIFIED NUCLEOSIDE ANALOGUE AND USE THEREOF, AND NUCLEOSIDE ANALOGUE-CONTAINING DOUBLE-STRANDED OLIGONUCLEOTIDE AND USE THEREOF” (RIGERNA THERAPEUTICS (BEIJING) CO., LTD., priority 2023, published 2026)
“And” between values parts separate entries of the source, which are not always exact repeats. Equal values may be shown once. Strand notation (5' to 3'): a small letter for the sugar, then the base; units joined by * are phosphorothioate-linked, units joined directly phosphodiester-linked; [ ] holds rarer units or linkages, { } end groups; capitals alone tell only the bases. [NM031] = nucleoside analogue NM031 of the disclosure, C16 lipid conjugate (uridine-based); {VP} = (thio)vinylphosphonate on the antisense 5' nucleotide, as listed; m = 2'-O-methyl; f = 2'-fluoro

How the values were obtained:
target gene SOD1 [1] = experiment: Test Example 3: inhibitory activity of lipid conjugated siRNA sequences on SOD1 by lateral ventricle administration to mice; assay type: in vivo, C57BL/6j mice; conditions: 200 μg per mouse, D5
Procedure: 6-8 Week-old C57BL/6j mice were randomly grouped by body weight. Mice in each group were administered with siRNA by lateral ventricle administration, with an administration dose per mouse depending on a specific test. Taking Bregma in mouse brain as point 0 (origin), coordinates of right ventricle were found using the cerebral stereotaxic apparatus and position was marked on surface of skull (position of lateral ventricle was AP (anteroposterior, bregma anterior and posterior): −0.58 mm, ML (mediolateral, left and right of middle raphe): −1.2 mm, DV (dorsoventral, up and down cerebral dura mater plane): −2.2 mm). A dental electric drill was used to drill in the skull above a position of interest, and then medicament was injected into the lateral ventricle by a micro-dosing pump, wherein a total injection volume was 5 μL, and injection duration was 10 min. Needle was retained for 5 min after completion of injection, and then slowly withdrawn. Afterwards, needle hole was sealed with biomedical glue, and then head skin was adhered. After animals woke up, the animals were returned back to animal house and further fed. PBS control group was administered with the same volume of siRNA-free PBS solution. The day of administration was recorded as 0 day (D0), and the mice were sacrificed at observation point after the administration. Different parts of brain region were respectively taken and stored in the RNAlater.
(§1) RNA extraction: the above tissue samples were taken out from the RNAlater, and smashed for 60 s in Tissuelyser type II full-automatic tissue homogenizer, and total RNAs of various tissue samples were extracted using the full-automatic nucleic acid extraction instrument and the nucleic acid extraction kit from Zhejiang Hanwei Science and Technology Co. Ltd. according to methods described in instructions.
(§2) Reverse transcription reaction: 1 μg of the extracted total RNAs of the tissue samples were taken, and configured into 20 μL of reverse transcription system according to a method described in kit instructions by using a reverse transcription kit (Reverse Transcription System, A3500) from Promega Corporation and selecting Oligo (dT)15 reverse transcription primers, and the reverse transcription reaction was completed. After the reaction was ended, 80 μL of RNase-Free water was added into the reverse transcription system to provide cDNA solution for Real-time PCR detection.
(§3) Real-time PCR detection: 20 μL of Real-time PCR reaction system per PCR detection well was configured according to a method described in kit instructions using SYBR™ Select Master Mix (Catalog number: 4472908) reagent from ABI company. Each detection system contained 5 μL of cDNA template obtained from the above reverse transcription reaction, 10 μL of SYBR™ Select Master Mix, 0.5 μL of 10 μM upstream primers, 0.5 μL of 10 μM downstream primers, and 4 μL of RNase-Free H2O. The configured reaction system was subjected to Real-time PCR amplification on ABI StepOnePlus PCR instrument by a three-step method, wherein an amplification procedure was pre-denaturation at 95° C. for 10 min, then denaturation at 95° C. for 30 s, annealing at 60° C. for 30 s, and extension at 72° C. for 30 s; and processes of denaturation, annealing, and extension were repeated for 40 cycles. Gene expression differences were calculated by the ΔΔCt method after completion of the procedure.
In the real-time fluorescence quantitative PCR method, relative quantitative calculation of remaining expression level and inhibition rate of gene mRNA of interest in various test groups was performed by the ΔΔCt method, and the calculation method is as follows: […]

target gene SOD1 [2] = experiment: Test Example 5: inhibitory activity of lipid conjugated siRNA sequences on SOD1 by intrathecal administration to rats; assay type: in vivo, SD rats; design: key to Lumbar segmen Mean value of inhibition rate / Cortex Mean value of inhibition rate / Thoracic segment Mean value of inhibition rate / Cervical segment Mean value of inhibition rate / Cerebellum Mean value of inhibition rate / Hippocampus Mean value of inhibition rate: inhibition rate of SOD1 mRNA, calculated by the ΔΔCt method; conditions: D7
Procedure: 6-8 Week-old SD rats were randomly grouped by body weight. Rats in each group were administered with siRNA by intrathecal administration, with an administration dose of 900 μg per rat. Injection was administered from rat spinal cord L5-L6, with an administration volume of 40 μL. Needle was retained for 2 min after completion of injection, and then slowly withdrawn. PBS control group was administered with the same volume of siRNA conjugate-free PBS solution. The day of administration was recorded as 0 day (D0), and the rats were sacrificed at observation point after administration. Different segments of spinal cord and different regions of brain were respectively taken and stored in the RNAlater.
as §1, §2, §3
In the real-time fluorescence quantitative PCR method, relative quantitative calculation of remaining expression level and inhibition rate of gene mRNA of interest in various test groups was performed by the ΔΔCt method, and the calculation method is as follows:
The present example evaluated, by an evaluation method for inhibitory activity on a target gene by intrathecal administration to rats, the inhibitory activity of siRNA sequence RZ899060 with the sense strand with the NM031 conjugation at Position 4 and vector-free siRNA sequence RZ899056, and Uhd conjugated siRNA reference sequence RZ899055 on the target gene SOD1 of interest in spinal cord and brain of rats.
6-8 Week-old SD rats were randomly grouped by body weight, 5 per group, 4 groups in total. Rats in each group were dosed with the above siRNA conjugates by intrathecal administration, with an administration dose of 900 μg per rat, and an administration volume of 40 μL. PBS control group was administered with the same volume of siRNA conjugate-free PBS solution. The day of administration was recorded as 0 day (D0), and the rats were sacrificed on D7 after administration. […]

Question: Which “Cerebellum Mean value of inhibition rate %” value (target gene SOD1 [1]; cerebellum) does the source give for “RZ899060: siRNA sequence with the sense strand with the NM031 conjugation at Position 4; SEQ ID NO: 3 / 22 (sense mU*mU*mU[NM031]mAmAfUfCfCmUmCmAmCmUmCmUmAmAmA; antisense {VP}-mU*fU*mUmAmGfAmGmUmGmAmGmGmAfUmUfAmAmAmA*mU*mG)” here?
Answer: 56.11%

Question: And the “Cortex Mean value of inhibition rate %” value (target gene SOD1 [1]; cortex)?
Answer: 79.05%

Question: And the “Hippocampus Mean value of inhibition rate %” value (target gene SOD1 [1]; hippocampus)?
Answer: ≥ 90% and 90.98%

Question: And the “Cerebellum Mean value of inhibition rate” value (target gene SOD1 [2]; cerebellum, intrathecal, 900 μg per rat)?
Answer: 55.10

Question: And the “Cortex Mean value of inhibition rate” value (target gene SOD1 [2]; cerebral cortex, intrathecal, 900 μg per rat)?
Answer: 43.00

Question: And the “activity compared with the reference sequence RZ899055” value (target gene SOD1 [2]; hippocampus and cortex in the brain region, intrathecal 900 μg per rat)?
Answer: substantially comparable

Question: What about the “Hippocampus Mean value of inhibition rate” value (target gene SOD1 [2]; hippocampus, intrathecal, 900 μg per rat) of the same substance?
Answer: 47.77

Question: What about the “activity compared with the Uhd conjugated reference sequence RZ899055” value (target gene SOD1 [2]; lumbar segment, intrathecal 900 μg per rat) of the same substance?
Answer: substantially comparable

Question: What about the “inhibitory activity in the spinal cord segments” value (target gene SOD1 [2]; lumbar, thoracic and cervical segment, intrathecal 900 μg per rat) of the same substance?
Answer: ≥ 80%

Question: What about the “Cervical segment Mean value of inhibition rate” value (target gene SOD1 [2]; spinal cord cervical segment, intrathecal, 900 μg per rat) of the same substance?
Answer: 83.37

Question: And the “Lumbar segmen Mean value of inhibition rate” value (target gene SOD1 [2]; spinal cord lumbar segment, intrathecal, 900 μg per rat)?
Answer: 84.24

Question: What about the “Thoracic segment Mean value of inhibition rate” value (target gene SOD1 [2]; spinal cord thoracic segment, intrathecal, 900 μg per rat) of the same substance?
Answer: 94.54

Question: And the “activity compared with the Uhd conjugated reference sequence RZ899055” value (target gene SOD1 [2]; thoracic segment and cervical segment of spinal cord, intrathecal 900 μg per rat)?
Answer: superior
